Test results reported in US8192962B2, “Processes for detecting toxic substances” (Daikin Industries, Ltd., priority 2001, dated 2012).

Tested on: Stress protein genes
Experiment: DNA chip mRNA expression in yeast, stress protein genes (Table 6)
Assay type: cell-based, Saccharomyces cerevisiae S288C
Procedure: Yeast (Saccharomyces cerevisiae S288C (α SUC2mal mel gap2 CUP1)) were incubated at 25° C. on YPD medium (yeast extract 1%, polypepton 2%, glucose 2%). One of toxic chemical substances was added to the cells at logarithmic growth phase, and the cells were further incubated for two hours. Cells were cultured without any chemical substance in the same condition, and were used as control. Concentrations of the chemical substances were defined to inhibit the growth of the yeast but not lead to death.
After completion of the incubation, the culture was centrifuged to collect the cells. To the cells, sodium acetate buffer (50 mM sodium acetate, 10 mM EDTA, 1% SDS) was added, and the mixture was shaken at 65° C. for five minutes, followed by returning to room temperature, and obtaining the supernatant, of which the procedures were repeated two times. To the supernatant, ½ amount of a solution of phenol/chloroform was added, and the mixture was centrifuged to give a supernatant, which was added with an equal amount of chloroform, and the mixture was centrifuged to give a supernatant. To the supernatant, an equal amount of isopropanol containing 0.3 M sodium acetate was added, and the mixture was allowed to stand at room temperature for 30 minutes, after which the mixture was centrifuged to give a sediment of the whole RNAs. Seventy % ethanol was added to the sediment, and the mixture was again centrifuged to give a sediment, which was then dried and dissolved in water. mRNA was isolated from the whole RNAs as followings. In view of the fact that a poly A chain is attached to the 3′ terminus of mRNA, a polynucleotide having a poly T structure which was immobilized on the surface of latex beads was used to trap the mRNA, and then the mRNA was washed and eluted with spine column (Oligotex-dT30<Super>mRNA Purification Kit, Takara). Reverse transcription of the mRNA was conducted with a reverse transcriptase (Super Script II Reverse Transcriptase; catalogue No. 18064-014, GibcoBRL) using fluorescence-labeled nucleotides to give cDNAs that were introduced with Cy3-dUTP or Cy5-dUTP during the reverse transcription.
The labeled cDNAs were dissolved in TE buffer (10mM Tris-HCl/1 mM EDTA, pH8.0), and the solution was dropped on the DNA chip containing the whole genes of yeast (DNA Chip Research Inc. Japan) so that the cDNAs were hybridized on the DNA chip at 65° C. for over 12 hours. The fluoresces intensity of the DNA chip was read with a scanner, and the ratio relative to the fluorescence intensity resulting from the absence of chemical substance was estimated as the following, which is shown in Tables 1 to 9: […]

C=CC=O [(14), acrolein]
The level of expressed mRNA in the presence of chemical substance/The level of expressed mRNA in the absence of chemical substance (yeast gene YAL005C): 0.4 | The level of expressed mRNA in the presence of chemical substance/The level of expressed mRNA in the absence of chemical substance (yeast gene YAL015C): 1.6 | The level of expressed mRNA in the presence of chemical substance/The level of expressed mRNA in the absence of chemical substance (yeast gene YBL075C): 1.1 | The level of expressed mRNA in the presence of chemical substance/The level of expressed mRNA in the absence of chemical substance (yeast gene YBL093C): 1.0 | The level of expressed mRNA in the presence of chemical substance/The level of expressed mRNA in the absence of chemical substance (yeast gene YBR044C): 0.9 | The level of expressed mRNA in the presence of chemical substance/The level of expressed mRNA in the absence of chemical substance (yeast gene YBR054W): 1.0 | The level of expressed mRNA in the presence of chemical substance/The level of expressed mRNA in the absence of chemical substance (yeast gene YBR067C): 0.7 | The level of expressed mRNA in the presence of chemical substance/The level of expressed mRNA in the absence of chemical substance (yeast gene YBR072W): 5.8 | The level of expressed mRNA in the presence of chemical substance/The level of expressed mRNA in the absence of chemical substance (yeast gene YBR126C): 0.7 | The level of expressed mRNA in the presence of chemical substance/The level of expressed mRNA in the absence of chemical substance (yeast gene YBR169C): 1.1 | The level of expressed mRNA in the presence of chemical substance/The level of expressed mRNA in the absence of chemical substance (yeast gene YCL035C): 2.5 | The level of expressed mRNA in the presence of chemical substance/The level of expressed mRNA in the absence of chemical substance (yeast gene YCR021C): 1.6 | The level of expressed mRNA in the presence of chemical substance/The level of expressed mRNA in the absence of chemical substance (yeast gene YCR060W): 1.7 | The level of expressed mRNA in the presence of chemical substance/The level of expressed mRNA in the absence of chemical substance (yeast gene YCR083W): 2.4 | The level of expressed mRNA in the presence of chemical substance/The level of expressed mRNA in the absence of chemical substance (yeast gene YDL022W): 0.8 | The level of expressed mRNA in the presence of chemical substance/The level of expressed mRNA in the absence of chemical substance (yeast gene YDL025C): 1.7 | The level of expressed mRNA in the presence of chemical substance/The level of expressed mRNA in the absence of chemical substance (yeast gene YDR033W): 1.0 | The level of expressed mRNA in the presence of chemical substance/The level of expressed mRNA in the absence of chemical substance (yeast gene YDR077W): 0.3 | The level of expressed mRNA in the presence of chemical substance/The level of expressed mRNA in the absence of chemical substance (yeast gene YDR098C): 1.5 | The level of expressed mRNA in the presence of chemical substance/The level of expressed mRNA in the absence of chemical substance (yeast gene YDR155C): 1.0 | The level of expressed mRNA in the presence of chemical substance/The level of expressed mRNA in the absence of chemical substance (yeast gene YDR258C): 1.5 | The level of expressed mRNA in the presence of chemical substance/The level of expressed mRNA in the absence of chemical substance (yeast gene YDR293C): 0.8 | The level of expressed mRNA in the presence of chemical substance/The level of expressed mRNA in the absence of chemical substance (yeast gene YDR436W): 1.2 | The level of expressed mRNA in the presence of chemical substance/The level of expressed mRNA in the absence of chemical substance (yeast gene YDR513W): 2.0 | The level of expressed mRNA in the presence of chemical substance/The level of expressed mRNA in the absence of chemical substance (yeast gene YDR519W): 1.3 | The level of expressed mRNA in the presence of chemical substance/The level of expressed mRNA in the absence of chemical substance (yeast gene YEL030W): 0.7 | The level of expressed mRNA in the presence of chemical substance/The level of expressed mRNA in the absence of chemical substance (yeast gene YEL039C): 1.4 | The level of expressed mRNA in the presence of chemical substance/The level of expressed mRNA in the absence of chemical substance (yeast gene YER042W): 5.2 | The level of expressed mRNA in the presence of chemical substance/The level of expressed mRNA in the absence of chemical substance (yeast gene YER057C): 1.4 | The level of expressed mRNA in the presence of chemical substance/The level of expressed mRNA in the absence of chemical substance (yeast gene YER103W): 0.9 | The level of expressed mRNA in the presence of chemical substance/The level of expressed mRNA in the absence of chemical substance (yeast gene YER125W): 0.7 | The level of expressed mRNA in the presence of chemical substance/The level of expressed mRNA in the absence of chemical substance (yeast gene YFL014W): 7.3 | The level of expressed mRNA in the presence of chemical substance/The level of expressed mRNA in the absence of chemical substance (yeast gene YFL016C): 0.8 | The level of expressed mRNA in the presence of chemical substance/The level of expressed mRNA in the absence of chemical substance (yeast gene YFL020C): 1.0 | The level of expressed mRNA in the presence of chemical substance/The level of expressed mRNA in the absence of chemical substance (yeast gene YFR052W): 3.3 | The level of expressed mRNA in the presence of chemical substance/The level of expressed mRNA in the absence of chemical substance (yeast gene YGL073W): 1.2 | The level of expressed mRNA in the presence of chemical substance/The level of expressed mRNA in the absence of chemical substance (yeast gene YGL115W): 1.2 | The level of expressed mRNA in the presence of chemical substance/The level of expressed mRNA in the absence of chemical substance (yeast gene YGL181W): 1.0 | The level of expressed mRNA in the presence of chemical substance/The level of expressed mRNA in the absence of chemical substance (yeast gene YGR088W): 1.3 | The level of expressed mRNA in the presence of chemical substance/The level of expressed mRNA in the absence of chemical substance (yeast gene YHL028W): 1.3 | The level of expressed mRNA in the presence of chemical substance/The level of expressed mRNA in the absence of chemical substance (yeast gene YHL046C): 1.4 | The level of expressed mRNA in the presence of chemical substance/The level of expressed mRNA in the absence of chemical substance (yeast gene YHR030C): 1.1 | The level of expressed mRNA in the presence of chemical substance/The level of expressed mRNA in the absence of chemical substance (yeast gene YHR057C): 1.9 | The level of expressed mRNA in the presence of chemical substance/The level of expressed mRNA in the absence of chemical substance (yeast gene YHR104W): 1.5 | The level of expressed mRNA in the presence of chemical substance/The level of expressed mRNA in the absence of chemical substance (yeast gene YIL011W): 0.5
